≈ marks a conversion by molar mass, not a printed value.
Tests used:
HeLa = experiment: Cytotoxicity against human HeLa cells by MTT assay; format: functional, cell-based
Escherichia coli = experiment: Antibacterial activity against Escherichia coli measured after 20 to 45 mins by broth microdilution method; format: functional; conditions: time 20-45 min
Vibrio parahaemolyticus = experiment: Antibacterial activity against Vibrio parahaemolyticus measured after 20 to 45 mins by broth microdilution method; format: functional; conditions: time 20-45 min
Salmonella typhi = experiment: Antibacterial activity against Salmonella typhi measured after 20 to 45 mins by broth microdilution method; format: functional, Salmonella enterica subsp. enterica serovar Typhi; conditions: Salmonella enterica; time 20-45 min
SK-OV-3 = experiment: Cytotoxicity against human SK-OV-3 cells by MTT assay; format: functional, cell-based
HepG2 = experiment: Cytotoxicity against human HepG2 cells by MTT assay; format: functional, cell-based
A2780 = experiment: Cytotoxicity against human A2780 cells by MTT assay; format: functional, cell-based
Bacillus subtilis = experiment: Antibacterial activity against Bacillus subtilis measured after 20 to 45 mins by broth microdilution method; format: functional; conditions: time 20-45 min
Shigella dysenteriae = experiment: Antibacterial activity against Shigella dysenteriae measured after 20 to 45 mins by broth microdilution method; format: functional; conditions: time 20-45 min
Enterococcus faecalis = experiment: Antibacterial activity against Enterococcus faecalis measured after 20 to 45 mins by broth microdilution method; format: functional; conditions: time 20-45 min
Staphylococcus aureus = experiment: Antibacterial activity against Staphylococcus aureus measured after 20 to 45 mins by broth microdilution method; format: functional; conditions: time 20-45 min

| Structure (SMILES) | IC50 (HeLa) [µM] | MIC (Escherichia coli) [µg/mL] | MIC (Vibrio parahaemolyticus) [µg/mL] | MIC (Salmonella typhi) [µg/mL] | IC50 (SK-OV-3) [µM] | IC50 (HepG2) [µM] | IC50 (A2780) [µM] | MIC (Bacillus subtilis) [µg/mL] | MIC (Shigella dysenteriae) [µg/mL] | MIC (Enterococcus faecalis) [µg/mL] | MIC (Staphylococcus aureus) [µg/mL] |
| --- | --- | --- | --- | --- | --- | --- | --- | --- | --- | --- | --- |
| CC1=C[C@@H]2/C=C(\C)CCC(=O)[C@@H](O)/C=C/C(=O)[C@]23C(=O)N[C@@H](CC(C)C)[C@@H]3[C@@H]1C | > 20 | > 25 | > 25 | > 25 | > 20 | > 20 | > 20 | > 25 | > 25 | > 25 | > 25 |
| CO[C@H]1CCC[C@H](C)OC(=O)Cc2cc(O)cc(O)c2C(=O)C1 [11ALPHA-METHOXYCURVULARIN] | > 20 | > 25 | > 25 | > 25 | > 20 | > 20 | > 20 | > 25 | > 25 | > 25 | > 25 |
| O=C(O)c1cn(C2CC2)c2cc(N3CCNCC3)c(F)cc2c1=O [CIPROFLOXACIN] | – | 1.6 (≈ 4.83 µM) | 3.1 (≈ 9.36 µM) | 1.6 (≈ 4.83 µM) | – | – | – | 1.6 (≈ 4.83 µM) | 1.6 (≈ 4.83 µM) | 1.6 (≈ 4.83 µM) | 1.6 (≈ 4.83 µM) |
| CC1=C[C@@H]2/C=C(\C)CC[C@@H](O)[C@@H](O)[C@H](O)CC(=O)[C@]23C(=O)N[C@@H](CC(C)C)[C@@H]3[C@@H]1C | > 20 | > 25 | > 25 | > 25 | > 20 | > 20 | > 20 | > 25 | > 25 | > 25 | > 25 |
| C[C@H]1CCC(=O)CCC(=O)c2c(O)cc(O)cc2CC(=O)O1 | > 20 | > 25 | > 25 | > 25 | > 20 | > 20 | > 20 | > 25 | > 25 | > 25 | > 25 |
| CC1=C[C@@H]2/C=C(\C)CC[C@H](O)[C@H](O)/C=C/C(=O)O[C@]23C(=O)N[C@@H](CC(C)C)[C@@H]3[C@@H]1C [ASPOCHALASIN I] | > 20 | > 25 | > 25 | > 25 | > 20 | > 20 | > 20 | > 25 | > 25 | > 25 | > 25 |

Source: ChEMBL document CHEMBL5584362, “Sucurchalasins A and B, Sulfur-Containing Heterodimers of a Cytochalasan and a Macrolide from the Endophytic Fungus Aspergillus spelaeus GDGJ-286” (J Nat Prod, 2024)
